Laboratory results taken from patent US4888329A, “Antiulcer composition” (Senju Pharmaceutical Co., Ltd., priority 1987, dated 1989).

Tests used:
rat stress ulcer [1] = assay: Effect on rat stress ulcer, intraperitoneal (Experimental Example 2); format: in vivo, male Wistar rats; settings: 10 mg/5ml/kg intraperitoneal, disodium salt
Protocol: The test drug was aministered intraperitoneally to male Wistar rats weighing about 150 g. After 30 minutes, each rat was fixed to a board with tying thread and immersed in water at 23° C. for 7 hours for stress loading. Ten minutes before water immersion, 3 ml/kg of 5% Pontamine Sky Blue was intravenously administered.
After this 7-hour water immersion, the rats were removed from the water and the stomach was excised and fixed in 1% aqueous formaldehyde. Then, the length (mm) of the gastric ulcer induced was measured.
(§1) *physiological saline, 5 ml/kg
In the above table, each value in the column corresponding to the length of ulcer is the mean ± S.E. and the figure in the parentheses denotes the number of cases.

rat stress ulcer [2] = assay: Effect on rat stress ulcer, oral (Experimental Example 1); format: in vivo, male Wistar rats; settings: disodium salt; for Length of ulcer: mean ± S.E., 5 h water immersion at 23° C., control 25.5 ± 4.29; for % Inhibition: length of ulcer vs control, 5 h water immersion
Protocol: The test drug was administered orally to male Wistar rats weighing 230-270 g and after 30 minutes, the four limbs of each rat were fixed to a board with tying thread. The rats were then immersed in water at 23° C. for 5 hours for stress loading. Ten minutes before water immersion, 3 ml/kg of 5% Pontamine Sky Blue was intravenously injected. After this 5-hour water immersion, the rats were removed from the water and the stomach was excised and fixed in 1% aqueous formaldehyde. Then, the length of the gastric ulcer induced was measured.
*Control: 5% gum arabic solution, 5 ml/kg
In the above table, each value in the column corresponding to length of ulcer is the mean ± S.E. (standard error) and the figure in parentheses denotes the number of the cases.

Toxicity in rat (LD50) = settings: in vivo
From the text: For instance, the toxicity in rat of disodium salt of phosphoric acid diester of L-ascorbic acid and DL-α-tocopherol was observed as follows: […]

rat stress ulcer [3] = assay: Effect on rat stress ulcer, intraperitoneal (Experimental Example 4); format: in vivo, male Wistar rats; settings: for Length of ulcer: mean ± S.E., 7 h water immersion at 23° C., control 31.7 ± 3.64; for % Inhibition: length of ulcer vs control
Protocol: The test drugs were administered intraperitoneally to male Wistar rats weighing about 130-190 g and after 30 minutes, the four limbs of each rat were fixed to a board with tying thread. The rats were then immersed in water at 23° C. for 7 hours for stress loading. Ten minutes before water immersion, 3 ml/kg of 5% Pontamine Sky Blue was intravenously injected. After 7-hour water immersion, the rats were removed from the water and stomach was excised and fixed in 1% aqueous formaldehyde. Then length of gastric ulcer induced was measured.
as §1
In the above table, each value in the column corresponding to length of ulcer is the mean ± S.E. and the figure in the parentheses denotes the number of cases.

[4] = system: indomethacin-induced ulcer; assay: Effect on indomethacin-induced ulcer (Experimental Example 3); format: in vivo, male Donryu rats; settings: disodium salt; for Length of ulcer: 30 min before indomethacin, mean ± S.E., 7 h after indomethacin, control 30.8 ± 5.97; for % Inhibition: length of ulcer vs control
Protocol: Male Donryu rats weighing 180-200 g were fasted for 24 hours and, then, a suspension of indomethacin in 1% carboxymethylcellulose (30 mg/[…]) was subcutaneously injected. The test drug was orally administered 30 minutes before indomethacin loading. Ten minutes before sacrifice at 7 hours after indomethacin loading, 3 ml/kg 5% Pontamine Sky Blue was intravenously injected. After sacrifice, the stomach was excised and fixed in 1% aqueous formaldehyde. Then, the length (mm) of the gastric ulcer induced was measured.
*5% gum arabic solution, 5 ml/kg
In the above table, each value in the column corresponding to the length of ulcer is the mean ± S.E. and the figure in parentheses denotes the number of cases.

SMILES	Length of ulcer (rat stress ulcer [1]; mean ± S.E., n=6, 7 h water immersion at 23° C., control 34.3 ± 4.76)	% Inhibition (rat stress ulcer [1]; length of ulcer vs control, 7 h water immersion)	Length of ulcer (rat stress ulcer [2]; 100 mg/5ml/kg oral, n=5)	Length of ulcer (rat stress ulcer [2]; 1000 mg/5ml/kg oral, n=6)	% Inhibition (rat stress ulcer [2]; 100 mg/5ml/kg oral)	% Inhibition (rat stress ulcer [2]; 1000 mg/5ml/kg oral)	LD50 (Toxicity in rat (LD50); po, per os)	LD50 (Toxicity in rat (LD50); sc, subcutaneous administration)	Length of ulcer (rat stress ulcer [3]; 10 mg/5 ml/kg intraperitoneal, disodium salt, n=10)	Length of ulcer (rat stress ulcer [3]; 30 mg/5 ml/kg intraperitoneal, disodium salt, n=5)	% Inhibition (rat stress ulcer [3]; 10 mg/5 ml/kg intraperitoneal, disodium salt)	% Inhibition (rat stress ulcer [3]; 30 mg/5 ml/kg intraperitoneal, disodium salt)	Length of ulcer ([4]; 300 mg/5 ml/kg oral, n=8)	Length of ulcer ([4]; 1000 mg/5 ml/kg oral, n=9)	% Inhibition ([4]; 300 mg/5 ml/kg oral)	% Inhibition ([4]; 1000 mg/5 ml/kg oral)	Length of ulcer (rat stress ulcer [3]; 200 mg/5 ml/kg intraperitoneal, n=5)	% Inhibition (rat stress ulcer [3]; 200 mg/5 ml/kg intraperitoneal)
Cc1c(C)c2c(c(C)c1OP(=O)(O)OC1=C(O)[C@@H]([C@@H](O)CO)OC1=O)CCC(C)(CCCC(C)CCCC(C)CCCC(C)C)O2 (mixture of isomers) [α-EPC, phosphoric acid diester of L-ascorbic acid and DL-α-tocopherol]	7.7 ± 6.00 mm	77.6%	19.4 ± 6.91 mm	10.3 ± 3.51 mm	23.9%	59.6%	> 10000 mg/kg	793 mg/kg	8.5 ± 4.06 mm	2.8 ± 1.27 mm	73.2%	91.2%	20.4 ± 3.72 mm	3.5 ± 1.54 mm	33.8%	88.6%	–	–
CN/C(=N/CCSCc1nc[nH]c1C)NC#N [Cimetidine, reference compound]	–	–	–	–	–	–	–	–	–	–	–	–	–	–	–	–	7.4 ± 7.16 mm	76.7%
